# pIC50: −log10 of the molar value.
# Experiments:
# [1] = target: T1, MDM2 (Homo sapiens, UniProt Q00987); assay: FP displacement of Texas Red-labelled p53 peptide from MDM2; binding confirmed by WaterLOGSY NMR
# [2] = target: T1, MDM2; assay: FP displacement of Texas Red-labelled p53 peptide from MDM2; format: binding
# T1 sequence (Q00987 whole entry): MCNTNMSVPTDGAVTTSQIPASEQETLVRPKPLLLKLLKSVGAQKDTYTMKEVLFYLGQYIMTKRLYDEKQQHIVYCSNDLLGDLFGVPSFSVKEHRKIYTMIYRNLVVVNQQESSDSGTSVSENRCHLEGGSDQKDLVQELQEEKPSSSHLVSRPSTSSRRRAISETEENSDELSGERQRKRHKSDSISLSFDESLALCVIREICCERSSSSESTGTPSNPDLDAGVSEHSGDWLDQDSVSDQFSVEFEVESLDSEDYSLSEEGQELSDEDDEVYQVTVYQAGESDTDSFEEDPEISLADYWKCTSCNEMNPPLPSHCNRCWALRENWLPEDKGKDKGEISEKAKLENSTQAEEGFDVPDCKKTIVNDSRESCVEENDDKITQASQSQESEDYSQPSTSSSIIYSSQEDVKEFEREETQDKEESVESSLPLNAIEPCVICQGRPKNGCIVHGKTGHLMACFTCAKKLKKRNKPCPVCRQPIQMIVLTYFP
pIC50 [1],pIC50 [2],SMILES
5.00,,"CCCNc1nc(NCC(=O)OCC)c2nc(-c3cn(C)nn3)n(C3Cc4ccccc4C3)c2n1 [14f, 6-(Ethoxy-carbonyl-methylamino)-9-(2-indanyl)-8-(1-methyl-1H-1,2,3-triazol-4-yl)-2-(1-propylamino)purine]"
,4.25,CCCNc1nc(N)c2nc(-c3cn(C)nn3)n(C3Cc4ccccc4C3)c2n1 [14j]
